Experimental data as given in patent publication US8013153B2, “Substituted pyrimidine kinase inhibitors” (Janssen Pharmaceutica, N.V., priority 2006, dated 2011).
“And” between values parts separate entries of the source, which are not always exact repeats. Equal values may be shown once. “Also recorded” adds a separate entry of the source.

Tests used:
[1] = In vivo tumor xenograft models overall (tolerability, body weight, plasma levels)
Protocol: Female Nu/Nu˜nuBR athymic nude mice (obtained from Charles River Laboratories), at the age of 5-6 weeks were feed water and an irradiated standard rodent diet ad libitum, and housed in specific pathogen-free conditions, according to the guidelines of the American Association for Accreditation of Lab Animal Care (AALAC).
Tumor measurements and body weights were recorded individually (2×/week) during the treatment period of the experiment. Tumors were measured using a digital caliper. Data was recorded/calculated using Study Director software (StudyLog Systems, Inc.) and graphs were created in GraphPad Prizm.
The volume of each tumor in an animal was calculated according to the formula: (D×d^2)/2, where the diameters were determined from two orthogonal measurements on each tumor. The mean tumor volume was determined by averaging all tumor volumes in each group. The mean body weight was determined by averaging all body weights in each group.

[2] = system: A375 malignant melanoma; assay: Inhibition of in vitro cell proliferation (A375); assay type: cell-based, human; conditions: Homo sapiens, A-375, 14C-thymidine incorporation;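 further: cells plated for 24 h, given compound for 24 h, then labelled with 14C-thymidine for another 24 h, with DMSO-only wells as control and counts read by scintillation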
[3] = molecular target: tyrosine kinase KIT (Homo sapiens, UniProt P10721); assay: KIT Kinase Screening Assay
Chain of tyrosine kinase KIT (P10721 26-976): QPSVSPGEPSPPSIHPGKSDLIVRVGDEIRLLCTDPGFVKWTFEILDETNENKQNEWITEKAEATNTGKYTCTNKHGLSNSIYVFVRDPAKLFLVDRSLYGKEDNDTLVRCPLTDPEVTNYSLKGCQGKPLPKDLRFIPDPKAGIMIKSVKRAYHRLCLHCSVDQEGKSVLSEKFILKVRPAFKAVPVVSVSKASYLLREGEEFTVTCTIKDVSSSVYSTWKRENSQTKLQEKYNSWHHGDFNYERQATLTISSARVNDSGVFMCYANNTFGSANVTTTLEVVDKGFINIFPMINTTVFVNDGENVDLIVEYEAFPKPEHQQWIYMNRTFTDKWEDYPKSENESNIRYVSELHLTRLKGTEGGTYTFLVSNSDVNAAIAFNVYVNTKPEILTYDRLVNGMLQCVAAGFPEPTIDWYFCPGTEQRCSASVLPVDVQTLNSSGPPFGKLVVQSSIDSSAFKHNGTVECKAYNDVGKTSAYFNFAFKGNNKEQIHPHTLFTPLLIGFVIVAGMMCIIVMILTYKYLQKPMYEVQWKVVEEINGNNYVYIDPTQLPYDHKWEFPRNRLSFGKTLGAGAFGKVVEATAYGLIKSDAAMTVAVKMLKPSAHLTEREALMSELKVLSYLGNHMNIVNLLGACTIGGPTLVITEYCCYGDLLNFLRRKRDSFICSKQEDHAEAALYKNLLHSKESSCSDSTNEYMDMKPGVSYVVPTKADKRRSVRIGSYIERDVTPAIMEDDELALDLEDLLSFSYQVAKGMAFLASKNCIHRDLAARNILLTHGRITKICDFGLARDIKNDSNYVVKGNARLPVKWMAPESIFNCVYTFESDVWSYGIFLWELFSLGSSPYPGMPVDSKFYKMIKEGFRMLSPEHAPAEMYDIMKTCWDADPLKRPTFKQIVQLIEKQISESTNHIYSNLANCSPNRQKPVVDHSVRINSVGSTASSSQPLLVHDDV

[4] = system: HCT-116 colon carcinoma; assay: Inhibition of in vitro cell proliferation (HCT116); assay type: cell-based, human; conditions: Homo sapiens, HCT-116, 14C-thymidine incorporation;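 further: cells exposed to compound for 24 h, then 14C-thymidine added for a further 24 h and its uptake into DNA counted by scintillation, DMSO-only wells as control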
[5] = molecular target: C-Raf (Homo sapiens, UniProt P04049); assay: RAF Kinase Screening Assay (C-Raf); conditions: Compound 50 tested at 30 μM
Chain of C-Raf (P04049 whole entry, species assumed): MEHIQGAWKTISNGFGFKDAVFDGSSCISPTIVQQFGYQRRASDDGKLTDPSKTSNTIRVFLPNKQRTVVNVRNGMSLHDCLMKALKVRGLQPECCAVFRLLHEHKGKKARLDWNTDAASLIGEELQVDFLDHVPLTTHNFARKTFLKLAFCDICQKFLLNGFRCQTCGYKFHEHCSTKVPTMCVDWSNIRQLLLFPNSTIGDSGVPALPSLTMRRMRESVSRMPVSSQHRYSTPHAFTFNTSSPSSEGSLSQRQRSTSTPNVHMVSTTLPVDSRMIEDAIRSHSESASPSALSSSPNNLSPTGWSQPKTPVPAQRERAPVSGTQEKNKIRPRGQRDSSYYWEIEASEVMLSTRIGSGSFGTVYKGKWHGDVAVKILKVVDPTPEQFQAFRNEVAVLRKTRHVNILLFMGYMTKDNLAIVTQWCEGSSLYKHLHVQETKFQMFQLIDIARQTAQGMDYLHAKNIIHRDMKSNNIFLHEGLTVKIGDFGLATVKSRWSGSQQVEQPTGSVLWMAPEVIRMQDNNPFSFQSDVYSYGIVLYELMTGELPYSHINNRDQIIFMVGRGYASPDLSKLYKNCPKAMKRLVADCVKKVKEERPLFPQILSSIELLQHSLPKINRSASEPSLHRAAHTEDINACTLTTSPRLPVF

[6] = system: VEGF-induced angiogenesis; assay: Mouse Corneal Micropocket Assay; assay type: in vivo, C57BL/6J mice
Excerpt: This method has been described in detail (see Kenyon B, Voest E E, Chen C C, Flynn E, Folkman J and D'Amato R J, A model of angiogenesis in the mouse cornea, Invest. Opthalmol. Vis. Sci., 1996, 37:1625-1632; and, LaMontagne K, Littlewood-E A, Schnell C, O'Reilly T, Wyder L, Sanchez T, Probst B, Butler J, Wood A, Liau G, Billy E, Theuer A, Hla T and Wood J, Antagonism of sphingosine-1-phosphate receptors by FTY720 inhibits angiogenesis and tumor vascularization, Cancer Res., 2006, 66:221-31) and is an in vivo functional assay that provides an important link between biochemical and cellular inhibition (i.e., VEGFR-2 autophosphorylation and VEGF-dependent migration) and functional biological end points (i.e., VEGF-induced angiogenesis in vivo).
Pellets containing the slow-release polymer Hydron® and sucralfate with 180 ng rHuVEGF165 were implanted into the cornea of female C57BL/6J mice. Daily oral treatment with either Compound 50 (10 mg/kg or 100 mg/kg) or vehicle (0.5% methylcellulose) was started 24 hours later. […] After sacrifice on day 6, the vascular response was quantified using a linear reticule through the slit lamp. Inhibition was determined by the formula: Inhibition=[(0.2)(π)(new blood vessel length)(clock hours of neovessels)]
The circumferential zone was measured as clock hours with a 360° reticule (where 30° of arc equals 1 clock hour). […]

[7] = molecular target: T1, CDK1:Cyclin-B (Homo sapiens, UniProt P06493); assay: CDK1 Screening Assay; assay type: biochemical
T1 construct: purchased New England Biolabs, Beverly, Mass; 6020; host or cells: insect cells
T1 sequence (P06493 whole entry): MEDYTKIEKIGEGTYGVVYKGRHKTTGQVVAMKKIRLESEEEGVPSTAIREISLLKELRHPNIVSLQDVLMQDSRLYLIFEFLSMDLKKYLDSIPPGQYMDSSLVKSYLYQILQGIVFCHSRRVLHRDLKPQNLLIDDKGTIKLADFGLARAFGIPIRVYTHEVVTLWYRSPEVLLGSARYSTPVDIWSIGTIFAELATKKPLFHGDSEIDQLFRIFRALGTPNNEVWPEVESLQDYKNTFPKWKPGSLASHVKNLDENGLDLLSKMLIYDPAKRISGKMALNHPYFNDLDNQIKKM
T1 sequence (P14635 whole entry partner): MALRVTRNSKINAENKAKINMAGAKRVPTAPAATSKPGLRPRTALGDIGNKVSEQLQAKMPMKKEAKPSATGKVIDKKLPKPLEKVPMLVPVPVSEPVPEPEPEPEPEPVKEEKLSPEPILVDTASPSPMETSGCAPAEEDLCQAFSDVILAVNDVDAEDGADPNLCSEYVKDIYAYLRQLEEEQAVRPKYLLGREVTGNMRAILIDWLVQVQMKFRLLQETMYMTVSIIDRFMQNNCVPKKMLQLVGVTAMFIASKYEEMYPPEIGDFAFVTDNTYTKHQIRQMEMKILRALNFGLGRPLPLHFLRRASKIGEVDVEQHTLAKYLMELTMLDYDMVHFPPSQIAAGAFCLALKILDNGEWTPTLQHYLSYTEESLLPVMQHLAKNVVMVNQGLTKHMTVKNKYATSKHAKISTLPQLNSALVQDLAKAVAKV

[8] = system: spontaneous intestinal adenoma formation; assay: C57BL/6J-APC Min-mouse model of human adenomatous polyposis coli; assay type: in vivo, C57BL/6J-Apc min mice; conditions: 100 mg/kg orally once-daily; vehicle 47±7, baseline 23±4
Protocol: The ability of Compound 50 to inhibit angiogenesis and tumor growth was tested in a spontaneous tumor model. the pre-cancerous polyp formation in the mouse model of human intestinal tumorigenesis.
Transgenic C57BL/6J-Apc min mice heterozygous for a dominant nonsense Apc mutation are highly susceptible to spontaneous intestinal adenoma formation (homozygous mice are not viable). One hundred percent of these animals will develop polyps by 12 weeks of age. This model is widely used for studying prevention of intestinal adenoma formation and is well described in the literature (Yang K, Edelmann W, Fan K, et. al. A mouse model of human familial adenomatous polyposis. J Exp Zool. 1997 15; 277(3):245-54).
Female C57BL/6J-Apc^Min mice (Jackson Laboratory, MN), 5 weeks of age, were housed (up to 10 mice per group) for a minimum of one week. Animals were then sorted into treatment groups based on body weight such that the mean body weight for the animals in each group was approximately the same. Small cohorts of animals (n=6) were sacrificed at day 1, before treatment to get a baseline number of polyps (mean polyp number at beginning of study). […]
Animals in the treated group (n=10) were dosed daily with Compound 50 at 100 mg/kg orally q.d. for one week. […] The intestine of each mouse was excised, perfused, stained (0.01% Trypan Blue) and polyps were counted under 10× magnification.

[9] = molecular target: B-Raf (Homo sapiens, UniProt P15056); assay: RAF Kinase Screening Assay (B-Raf); conditions: Compound 50 tested at 30 μM
Chain of B-Raf (P15056 whole entry, species assumed): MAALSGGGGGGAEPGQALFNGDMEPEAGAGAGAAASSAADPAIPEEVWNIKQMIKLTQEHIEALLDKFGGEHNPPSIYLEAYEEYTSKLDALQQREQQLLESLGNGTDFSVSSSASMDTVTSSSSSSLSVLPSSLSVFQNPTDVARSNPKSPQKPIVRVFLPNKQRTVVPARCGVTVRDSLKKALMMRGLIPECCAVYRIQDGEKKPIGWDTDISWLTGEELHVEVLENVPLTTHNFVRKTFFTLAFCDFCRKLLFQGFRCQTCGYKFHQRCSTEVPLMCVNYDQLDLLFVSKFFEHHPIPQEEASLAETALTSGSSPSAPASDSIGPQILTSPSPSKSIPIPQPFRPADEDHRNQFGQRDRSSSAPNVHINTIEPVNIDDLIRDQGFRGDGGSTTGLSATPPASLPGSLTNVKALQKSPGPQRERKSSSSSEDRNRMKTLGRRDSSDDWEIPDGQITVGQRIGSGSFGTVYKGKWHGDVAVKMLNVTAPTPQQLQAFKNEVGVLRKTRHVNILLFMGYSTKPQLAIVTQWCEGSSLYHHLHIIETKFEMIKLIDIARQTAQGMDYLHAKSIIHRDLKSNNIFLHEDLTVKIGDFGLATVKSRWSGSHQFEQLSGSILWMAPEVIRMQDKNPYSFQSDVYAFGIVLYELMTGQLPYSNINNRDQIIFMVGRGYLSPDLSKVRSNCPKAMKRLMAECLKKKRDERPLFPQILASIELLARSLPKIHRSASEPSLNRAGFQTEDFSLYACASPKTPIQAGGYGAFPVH

[10] = 100 mg/kg daily, 24-28 days of treatment
[11] = A431 and HCT116 models, continuous administration for 24 days

With CCNC(=O)Nc1ccc(Oc2ncnc(N)c2/C=N/OC)cc1Cl [Cpd 50, 1-{4-[6-amino-5-(methoxyimino-methyl)-pyrimidin-4-yloxy]-2-chloro-phenyl}-3-ethyl-urea] the “inhibition in tumor xenograft models” value ([1]; 10 mg/kg qd) was 28-48%, the plasma levels ([1]; 100 mg/kg daily dosing schedule, oral, mice) was 20 µM and the body weight [1, 10] was “no reduction of body weight”. For the same compound, the tolerability [1, 10] was “well-tolerated”, the treatment-related deaths [1, 10] was “no treatment-related deaths” and the body weights [1, 11] was “comparable with control animals”. For the same compound, the tolerability [1, 11] was “well tolerated”, the IC50 [2] was 3.91 µM and the IC50 [3] was 500 nM. For the same compound, the IC50 [4] was 3.7 µM, the “activity against C-Raf” value [5] was “no activity; also recorded: not active” and the “% Inhibition of blood vessel growth compared to the vehicle group” value ([6]; 10 mg/Kg daily oral) was 15% and 15 ± 2%. The “% Inhibition of blood vessel growth compared to the vehicle group” value ([6]; 100 mg/Kg daily oral) was 83% and 83 ± 6%, the IC50 [7] was greater than 100 µM and the polyp counts [8] was 27±7. The “activity against B-Raf” value [9] was “no activity; also recorded: not active”.
